Values of other authors, collected in patent US8962010B2, “Intravaginal drug delivery devices for the delivery of macromolecules and water-soluble drugs” (Warner Chilcott Company, LLC, priority 2007, dated 2015).

Settings: pH 5

water solubility: more than 20 % w/w
Structure (SMILES): CCN(Cc1cccc(S(=O)(=O)[O-])c1)c1ccc(C(=C2C=CC(=[N+](CC)Cc3cccc(S(=O)(=O)[O-])c3)C=C2)c2ccccc2S(=O)(=O)[O-])cc1.[Na+].[Na+] [Erioglaucine]
